From ChEMBL document CHEMBL5113549, “Binding versus Enzymatic Processing of ε-Trimethyllysine Dioxygenase Substrate Analogues” (ACS Med Chem Lett, 2022)
pKd: −log10 of the molar value. Calls of active or inactive are those of the source. The rule behind the calls is not given here.

How the values were obtained:
[1] = Binding affinity to human recombinant MBP-TMLD (42 to 421 residues) fusion protein expressed in Escherichia coli BL21-AI by isothermal titration calorimetry
[2] = species on record: Homo sapiens; assay: Binding affinity to human recombinant MBP-TMLD (42 to 421 residues) fusion protein expressed in Escherichia coli BL21-AI assessed as change in Gibbs free energy by isothermal titration calorimetry
[3] = species on record: Homo sapiens; assay: Binding affinity to human recombinant MBP-TMLD (42 to 421 residues) fusion protein expressed in Escherichia coli BL21-AI assessed as change in enthalpy by isothermal titration calorimetry
[4] = species on record: Homo sapiens; assay: Binding affinity to human recombinant MBP-TMLD (42 to 421 residues) fusion protein expressed in Escherichia coli BL21-AI assessed as change in entropy by isothermal titration calorimetry
[5] = species on record: Homo sapiens; assay: Substrate activity at human recombinant MBP-TMLD (42 to 421 residues) fusion protein expressed in Escherichia coli BL21-AI assessed as hydroxylated substrate formation at 500 uM in presence of alpha-ketoglutarate by proton 1D NMR spectroscopy
[6] = species on record: Homo sapiens; assay: Substrate activity at human recombinant MBP-TMLD (42 to 421 residues) fusion protein expressed in Escherichia coli BL21-AI assessed as ratio of succinate to hydroxylated substrate formation at 500 uM in presence of alpha-ketoglutarate by proton 1D NMR spectroscopy
[7] = species on record: Homo sapiens; assay: Binding affinity to human recombinant MBP-TMLD (42 to 421 residues) fusion protein expressed in Escherichia coli BL21-AI assessed as heat release at 300 uM in presence of co-factor OGA and Co2+ by isothermal titration calorimetry
[8] = species on record: Homo sapiens; assay: Binding affinity to human recombinant MBP-TMLD (42 to 421 residues) fusion protein expressed in Escherichia coli BL21-AI assessed as heat release at 300 uM in presence of co-factor OGA and Zn2+ by isothermal titration calorimetry
[9] = species on record: Homo sapiens; assay: Binding affinity to human recombinant MBP-TMLD (42 to 421 residues) fusion protein expressed in Escherichia coli BL21-AI assessed as heat release at 300 uM in presence of co-factor alpha-ketoglutarate and Zn2+ by isothermal titration calorimetry
[10] = species on record: Homo sapiens; assay: Binding affinity to human recombinant MBP-TMLD (42 to 421 residues) fusion protein expressed in Escherichia coli BL21-AI in presence of 1.18 to 2 fold excess of co-factor Zn2+/OGA by isothermal titration calorimetry

Structure (SMILES) | pKd [1] | deltaG [2] [kcal/mol] | deltaH [3] [kcal/mol] | -TdeltaS [4] [kcal/mol] | Activity [5] [%] | Ratio [6] | Activity [7] | Activity [8] | Activity [9] | Activity [10]
CCC[N+](C)(C)CCCC[C@H](N)C(=O)O | 5.04 | -6.9 | -1.4 | -5.5 | 25 | 3.4 | – | – | – | –
C[N+](C)(C)CCCC[C@H](N)C(=O)O | 5.24 | -7.15 | -5.48 | -1.66 | 97 | 1.3 | Active | Active | Active | Active
C[N+](C)(C)CCC[C@H](N)C(=O)O | 5.12 | -6.9 | -4.5 | -2.5 | 28 | 3.1 | – | – | – | –
CC(C)C(=O)N[C@@H](CCCC[N+](C)(C)C)C(=O)[O-] | – | – | – | – | 12 | 3.9 | – | – | – | –
CCCC[N+](C)(C)CCCC[C@H](N)C(=O)[O-] | 4.79 | -6.52 | -0.6 | -5.9 | 39 | 2.4 | – | – | – | –
CC[N+](C)(C)CCCC[C@H](N)C(=O)O | 5.22 | -7.12 | -6.37 | -0.75 | 83 | 2.1 | – | – | – | –
C[N+](C)(C)CCCCC[C@H](N)C(=O)O | 4.60 | -6.28 | -1.4 | -4.9 | 30 | 2.9 | – | – | – | –
CC(C)[N+](C)(C)CCCC[C@H](N)C(=O)O | 4.95 | -6.75 | -5.6 | -1.2 | 51 | 2.4 | – | – | – | –
